Source: ChEMBL document CHEMBL6087436, “The novel β-hairpin antimicrobial peptide D-G(RF)3 demonstrates exceptional antibacterial efficacy” (Eur J Med Chem, 2025)

System: Cell membrane
Assay: Induction of Outer membrane permeabilization in Escherichia coli at 1 times MIC by NPN-dye based fluorescence analysis; call rule not given here
Format: subcellular

SMILES: N=C(N)NCCC[C@@H](NC(=O)CNC(=O)[C@H]1CCCN1C(=O)[C@@H](CCCNC(=N)N)NC(=O)[C@@H](Cc1ccccc1)NC(=O)[C@@H](CCCNC(=N)N)NC(=O)[C@@H](Cc1ccccc1)NC(=O)[C@@H](CCCNC(=N)N)NC(=O)[C@H](N)Cc1ccccc1)C(=O)N[C@H](Cc1ccccc1)C(=O)N[C@H](CCCNC(=N)N)C(=O)N[C@H](Cc1ccccc1)C(=O)N[C@H](CCCNC(=N)N)C(=O)N[C@H](Cc1ccccc1)C(N)=O
- Activity: Active; Comparable Permeability To Polymyxin B Was Observed
